Species: Rattus norvegicus
Assay: Open TG-GATES - Regimen: Daily Repeat
Assay type: toxicity, organism-based, Sprague-Dawley
Parameters: regimen Daily Repeat, gender Male, age 6 weeks
Settings: in vivo, po, route gavage; for KIDNEY_L / KIDNEY_R / KIDNEY_TOTAL: tissue Kidney; for AST / CRE / GLC / IP / K / LDH / RALB / TBIL / TC / TP / gamma-GTP: tissue Plasma
[1] = 0 mg/kg, 72 h, dose level Control, time 3 day
[2] = 0 mg/kg, 72 h, tissue Blood, dose level Control, time 3 day
[3] = 0 mg/kg, […], dose level Control, time 7 day
[4] = 0 mg/kg, […], dose level Control, time 14 day
[5] = 0 mg/kg, […], dose level Control, time 28 day
[6] = 0 mg/kg, […], tissue Blood, dose level Control, time 7 day
[7] = 0 mg/kg, […], tissue Blood, dose level Control, time 14 day
[8] = 0 mg/kg, […], tissue Blood, dose level Control, time 28 day
[9] = 10 mg/kg, 72 h, dose level Low, time 3 day
[10] = 10 mg/kg, 72 h, tissue Blood, dose level Low, time 3 day
[11] = 10 mg/kg, […], dose level Low, time 7 day
[12] = 10 mg/kg, […], dose level Low, time 14 day
[13] = 10 mg/kg, […], dose level Low, time 28 day
[14] = 10 mg/kg, […], tissue Blood, dose level Low, time 7 day
[15] = 10 mg/kg, […], tissue Blood, dose level Low, time 14 day
[16] = 10 mg/kg, […], tissue Blood, dose level Low, time 28 day

SMILES: CN(C)CCCN1c2ccccc2CCc2ccccc21 [IMIPRAMINE]
- TERMINAL_BW [1]: 230.9 g
- APTT [2]: 16.3 s
- Bas [2]: 0%
- Eos [2]: 1%
- Fbg [2]: 278.8 mg/dL
- Ht [2]: 40.6%
- Lym [2]: 77.8%
- MCHC [2]: 32.6%
- MCV [2]: 63.2 fL
- Mono [2]: 3%
- PT [2]: 15.8 s
- Plat [2]: 111.4 x10_4/uL
- RBC [2]: 642.2 x10_4/ul
- Ret [2]: 6.7%
- KIDNEY_L [1]: 1 g
- KIDNEY_R [1]: 1 g
- KIDNEY_TOTAL [1]: 2 g
- AST [1]: 68.2 IU/L
- CRE [1]: 0.2 mg/dL
- GLC [1]: 180.6 mg/dL
- IP [1]: 7.7 mg/dL
- K [1]: 4.2 meq/L
- LDH [1]: 64.8 IU/L
- RALB [1]: 2.6 g/dL
- TBIL [1]: 0.056 mg/dL
- TC [1]: 79.2 mg/dL
- TP [1]: 5.7 g/dL
- gamma-GTP [1]: 1 IU/L
- TERMINAL_BW [3]: 270.9 g
- TERMINAL_BW [4]: 328.3 g
- TERMINAL_BW [5]: 419.8 g
- APTT [6]: 15.4 s
- Bas [6]: 0.2%
- Eos [6]: 1%
- Fbg [6]: 292 mg/dL
- Ht [6]: 41.2%
- Lym [6]: 77.4%
- MCHC [6]: 32.9%
- MCV [6]: 63.5 fL
- Mono [6]: 2.4%
- PT [6]: 15.4 s
- Plat [6]: 123.5 x10_4/uL
- RBC [6]: 649.4 x10_4/ul
- Ret [6]: 6.1%
- APTT [7]: 16 s
- Bas [7]: 0.4%
- Eos [7]: 0.8%
- Fbg [7]: 279.4 mg/dL
- Ht [7]: 42.1%
- Lym [7]: 79.2%
- MCHC [7]: 33.2%
- MCV [7]: 60.6 fL
- Mono [7]: 1.8%
- PT [7]: 15.6 s
- Plat [7]: 119.8 x10_4/uL
- RBC [7]: 695.6 x10_4/ul
- Ret [7]: 4.6%
- APTT [8]: 15.9 s
- Bas [8]: 0%
- Eos [8]: 1.2%
- Fbg [8]: 294.2 mg/dL
- Ht [8]: 44.1%
- Lym [8]: 80.6%
- MCHC [8]: 33.5%
- MCV [8]: 57.9 fL
- Mono [8]: 2.2%
- PT [8]: 15.4 s
- Plat [8]: 94.4 x10_4/uL
- RBC [8]: 761.4 x10_4/ul
- Ret [8]: 2.4%
- KIDNEY_L [3]: 1.1 g
- KIDNEY_R [3]: 1.1 g
- KIDNEY_TOTAL [3]: 2.2 g
- KIDNEY_L [4]: 1.3 g
- KIDNEY_R [4]: 1.2 g
- KIDNEY_TOTAL [4]: 2.5 g
- KIDNEY_L [5]: 1.4 g
- KIDNEY_R [5]: 1.4 g
- KIDNEY_TOTAL [5]: 2.9 g
- AST [3]: 66.2 IU/L
- CRE [3]: 0.2 mg/dL
- GLC [3]: 185.6 mg/dL
- IP [3]: 7.7 mg/dL
- K [3]: 4 meq/L
- LDH [3]: 114 IU/L
- RALB [3]: 2.6 g/dL
- TBIL [3]: 0.056 mg/dL
- TC [3]: 81.4 mg/dL
- TP [3]: 5.9 g/dL
- gamma-GTP [3]: 0.4 IU/L
- AST [4]: 63.6 IU/L
- CRE [4]: 0.2 mg/dL
- GLC [4]: 183.8 mg/dL
- IP [4]: 6.8 mg/dL
- K [4]: 4.2 meq/L
- LDH [4]: 97.4 IU/L
- RALB [4]: 2.6 g/dL
- TBIL [4]: 0.05 mg/dL
- TC [4]: 72.6 mg/dL
- TP [4]: 5.9 g/dL
- gamma-GTP [4]: 1 IU/L
- AST [5]: 55.6 IU/L
- CRE [5]: 0.2 mg/dL
- GLC [5]: 188.8 mg/dL
- IP [5]: 6.9 mg/dL
- K [5]: 3.9 meq/L
- LDH [5]: 43.4 IU/L
- RALB [5]: 2.8 g/dL
- TBIL [5]: 0.056 mg/dL
- TC [5]: 68 mg/dL
- TP [5]: 6.3 g/dL
- gamma-GTP [5]: 0.6 IU/L
- TERMINAL_BW [9]: 229.5 g
- APTT [10]: 16.1 s
- Bas [10]: 0%
- Eos [10]: 1%
- Fbg [10]: 294 mg/dL
- Ht [10]: 41.4%
- Lym [10]: 82.6%
- MCHC [10]: 32.5%
- MCV [10]: 65.4 fL
- Mono [10]: 2.8%
- Neu [10]: 12.8%
- PT [10]: 15.9 s
- Plat [10]: 115.2 x10_4/uL
- RBC [10]: 633 x10_4/ul
- Ret [10]: 5.6%
- KIDNEY_L [9]: 1 g
- KIDNEY_R [9]: 1 g
- KIDNEY_TOTAL [9]: 2 g
- AST [9]: 67 IU/L
- CRE [9]: 0.2 mg/dL
- GLC [9]: 185.4 mg/dL
- IP [9]: 7.7 mg/dL
- K [9]: 4.1 meq/L
- LDH [9]: 63.4 IU/L
- RALB [9]: 2.6 g/dL
- TBIL [9]: 0.06 mg/dL
- TC [9]: 81.6 mg/dL
- TP [9]: 5.8 g/dL
- gamma-GTP [9]: 1 IU/L
- TERMINAL_BW [11]: 262.8 g
- TERMINAL_BW [12]: 310.9 g
- TERMINAL_BW [13]: 402.9 g
- APTT [14]: 15.6 s
- Bas [14]: 0%
- Eos [14]: 1.2%
- Fbg [14]: 291.6 mg/dL
- Ht [14]: 40.2%
- Lym [14]: 80%
- MCHC [14]: 33.3%
- MCV [14]: 62.5 fL
- Mono [14]: 1.8%
- PT [14]: 15.9 s
- Plat [14]: 120.1 x10_4/uL
- RBC [14]: 644.6 x10_4/ul
- Ret [14]: 4.8%
- APTT [15]: 16.5 s
- Bas [15]: 0.2%
- Eos [15]: 0.8%
- Fbg [15]: 281.2 mg/dL
- Ht [15]: 41.8%
- Lym [15]: 83.2%
- MCHC [15]: 33.8%
- MCV [15]: 60.5 fL
- Mono [15]: 2.2%
- PT [15]: 16.3 s
- Plat [15]: 108.3 x10_4/uL
- RBC [15]: 691.6 x10_4/ul
- Ret [15]: 4.1%
- APTT [16]: 17.3 s
- Bas [16]: 0.4%
- Eos [16]: 1.4%
- Fbg [16]: 284.6 mg/dL
- Ht [16]: 43.7%
- Lym [16]: 81.4%
- MCHC [16]: 34%
- MCV [16]: 56.5 fL
- Mono [16]: 2.4%
- PT [16]: 16.4 s
- Plat [16]: 96.2 x10_4/uL
- RBC [16]: 773.2 x10_4/ul
- Ret [16]: 2.3%
- KIDNEY_L [11]: 1.1 g
- KIDNEY_R [11]: 1.1 g
- KIDNEY_TOTAL [11]: 2.1 g
- KIDNEY_L [12]: 1.3 g
- KIDNEY_R [12]: 1.2 g
- KIDNEY_TOTAL [12]: 2.5 g
- KIDNEY_L [13]: 1.4 g
- KIDNEY_R [13]: 1.3 g
- KIDNEY_TOTAL [13]: 2.7 g
- AST [11]: 63.8 IU/L
- CRE [11]: 0.2 mg/dL
- GLC [11]: 182.6 mg/dL
- IP [11]: 7.4 mg/dL
- K [11]: 4.2 meq/L
- LDH [11]: 123.4 IU/L
- RALB [11]: 2.6 g/dL
- TBIL [11]: 0.05 mg/dL
- TC [11]: 75.8 mg/dL
- TP [11]: 5.9 g/dL
- gamma-GTP [11]: 0.8 IU/L
- AST [12]: 66.4 IU/L
- CRE [12]: 0.2 mg/dL
- GLC [12]: 175.6 mg/dL
- IP [12]: 6.8 mg/dL
- K [12]: 4.3 meq/L
- LDH [12]: 62.8 IU/L
- RALB [12]: 2.7 g/dL
- TBIL [12]: 0.048 mg/dL
- TC [12]: 72 mg/dL
- TP [12]: 6.2 g/dL
- gamma-GTP [12]: 0.4 IU/L
- AST [13]: 62.2 IU/L
- CRE [13]: 0.2 mg/dL
- GLC [13]: 183.2 mg/dL
- IP [13]: 6.9 mg/dL
- K [13]: 3.8 meq/L
- LDH [13]: 53.6 IU/L
- RALB [13]: 2.8 g/dL
- TBIL [13]: 0.052 mg/dL
- TC [13]: 64.2 mg/dL
- TP [13]: 6.3 g/dL
- gamma-GTP [13]: 1 IU/L

— ChEMBL document CHEMBL3885861, “Open TG-GATES”
